Source: publication PMC7641581, “Cannabidiol interactions with voltage-gated sodium channels” (eLife, 2020)
Changes are numbered by the printed parent chain.

Experiments:
[1] = biological target: T1, NavMs voltage-gated sodium channel (Magnetococcus marinus, UniProt A0L5S6); assay: whole-cell voltage-clamp of transfected CHO-K1 cells; format: cell-based
T1 construct: gene Mmc1_0798; wild-type NavMs α-subunit in CHO-K1 cells, co-transfected with β1-subunit and eGFP
T1 sequence (A0L5S6 1-274): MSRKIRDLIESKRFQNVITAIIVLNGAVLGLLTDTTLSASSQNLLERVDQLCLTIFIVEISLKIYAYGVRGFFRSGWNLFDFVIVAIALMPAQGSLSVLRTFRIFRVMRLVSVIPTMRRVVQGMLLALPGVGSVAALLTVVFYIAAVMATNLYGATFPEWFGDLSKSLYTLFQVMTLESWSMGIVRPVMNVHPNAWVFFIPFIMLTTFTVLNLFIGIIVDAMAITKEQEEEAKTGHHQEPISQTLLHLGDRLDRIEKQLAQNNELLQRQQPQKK

[2] = biological target: T2, NavMs voltage-gated sodium channel (Magnetococcus marinus, UniProt A0L5S6, T207A); assay: whole-cell voltage-clamp, block at […] CBD; format: cell-based
T2 construct: gene Mmc1_0798; T207A NavMs α-subunit in CHO-K1 cells, co-transfected with β1-subunit and eGFP
T2 sequence (A0L5S6 1-274 T207A): T1 sequence (A0L5S6 1-274) with T207A

C=C(C)[C@@H]1CCC(C)=C[C@H]1c1c(O)cc(CCCCC)cc1O [Cannabidiol]
IC50 [1]: 17.8 ± 0.5 µM
whole-cell voltage-clamp, block at 10 μM CBD [2]: The mutation of the threonine side chain to a smaller alanine side chain results in a modest reduction in the CBD block
